# PubChem BioAssay (NCI)
#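 Values below derive from 48-hour exposures of cells grown in 96-well plates, with endpoints linearly interpolated between the two concentrations bracketing the appropriate inhibition level. TGI: total growth inhibition.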
# Assays:
# P388 leukemia = test: NCI tumour cell line growth inhibition, 48 h
# SN12K1 renal = test: NCI tumour cell line growth inhibition, 48 h
compound,measurement,setting,value
CC1NC(=O)CC(c2ccccc2)N(N=O)C1c1ccccc1 (configuration not stated),TGI,P388 leukemia,> 57.8 µM
same,TGI,SN12K1 renal,48.3 µM
